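1) Cells in 96-well plates. 2) Compound, 48 h, 5 concentrations. 3) Linear interpolation between surrounding doses. 4) Unreached endpoint = highest concentration. At the GI50, growth is halved.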 Activity calls are given as the source filed them. Cut-off read from the data, not from the text of the source: active = GI50 up to about 1.1 µM and inactive = higher.
Key:
Test in all cases: growth of human tumour cells (NCI), 48 h
786-0 = tested on: 786-0
A498 = tested on: A498
A549 = tested on: A549
ACHN = tested on: ACHN
CAKI-1 = tested on: CAKI-1
CCRF-CEM = tested on: CCRF-CEM
COLO 205 = tested on: COLO 205
DLD-1 = tested on: DLD-1
DMS-114 = tested on: DMS-114
HCC 2998 = tested on: HCC 2998
HCT-116 = tested on: HCT-116
HCT-15 = tested on: HCT-15
HL-60 = tested on: HL-60
HOP-62 = tested on: HOP-62
HOP-92 = tested on: HOP-92
HT-29 = tested on: HT-29
IGROV-1 = tested on: IGROV-1
K562 = tested on: K562
KM-20L2 = tested on: KM-20L2
KM12 = tested on: KM12
LOX IMVI = tested on: LOX IMVI
LXFL 529 = tested on: LXFL 529
M14 = tested on: M14
M19-MEL = tested on: M19-MEL
MOLT-4 = tested on: MOLT-4
Malme-3M = tested on: Malme-3M
NCI-H226 = tested on: NCI-H226
NCI-H460 = tested on: NCI-H460
NCI-H522 = tested on: NCI-H522
OVCAR-3 = tested on: OVCAR-3
OVCAR-4 = tested on: OVCAR-4
OVCAR-5 = tested on: OVCAR-5
OVCAR-8 = tested on: OVCAR-8
RPMI-8226 = tested on: RPMI-8226
RXF 631 = tested on: RXF 631
SF-268 = tested on: SF-268
SF-295 = tested on: SF-295
SF-539 = tested on: SF-539
SK-MEL-2 = tested on: SK-MEL-2
SK-MEL-5 = tested on: SK-MEL-5
SK-OV-3 = tested on: SK-OV-3
SN12C = tested on: SN12C
SNB-19 = tested on: SNB-19
SNB-75 = tested on: SNB-75
SW-620 = tested on: SW-620
UACC-257 = tested on: UACC-257
UACC-62 = tested on: UACC-62
UO-31 = tested on: UO-31
XF498 = tested on: XF498
DMS-273 = tested on: DMS-273
NCI-H23 = tested on: NCI-H23
RXF 393 = tested on: RXF 393
SK-MEL-28 = tested on: SK-MEL-28
SNB-78 = tested on: SNB-78
SR = tested on: SR
TK-10 = tested on: TK-10
U-251 = tested on: U-251
EKVX = tested on: EKVX
HOP-18 = tested on: HOP-18

O=CC[C@H]1CCc2ccccc2C12CCC(=O)CC2
GI50 (786-0): > 100 µM (inactive) | GI50 (A498): > 100 µM (inactive) | GI50 (A549): 55.7 µM (inactive) | GI50 (ACHN): > 100 µM (inactive) | GI50 (CAKI-1): > 100 µM (inactive) | GI50 (CCRF-CEM): 39.8 µM (inactive) | GI50 (COLO 205): 94.2 µM (inactive) | GI50 (DLD-1): 60.7 µM (inactive) | GI50 (DMS-114): 33.8 µM (inactive) | GI50 (HCC 2998): > 100 µM (inactive) | GI50 (HCT-116): 39.3 µM (inactive) | GI50 (HCT-15): 80.4 µM | GI50 (HL-60): 23.7 µM (inactive) | GI50 (HOP-62): > 100 µM (inactive) | GI50 (HOP-92): 68.4 µM (inactive) | GI50 (HT-29): 47.9 µM (inactive) | GI50 (IGROV-1): > 100 µM (inactive) | GI50 (K562): 28.2 µM (inactive) | GI50 (KM-20L2): 22.1 µM (inactive) | GI50 (KM12): 82.8 µM (inactive) | GI50 (LOX IMVI): 62.7 µM (inactive) | GI50 (LXFL 529): 57.5 µM (inactive) | GI50 (M14): 86.3 µM (inactive) | GI50 (M19-MEL): 57.7 µM (inactive) | GI50 (MOLT-4): 30.5 µM (inactive) | GI50 (Malme-3M): 74.5 µM (inactive) | GI50 (NCI-H226): 51.4 µM (inactive) | GI50 (NCI-H460): > 100 µM (inactive) | GI50 (NCI-H522): 43.2 µM (inactive) | GI50 (OVCAR-3): > 100 µM (inactive) | GI50 (OVCAR-4): > 100 µM (inactive) | GI50 (OVCAR-5): > 100 µM (inactive) | GI50 (OVCAR-8): > 100 µM (inactive) | GI50 (RPMI-8226): 35.4 µM (inactive) | GI50 (RXF 631): > 100 µM (inactive) | GI50 (SF-268): 76.6 µM (inactive) | GI50 (SF-295): > 100 µM (inactive) | GI50 (SF-539): 6.21 µM (inactive) | GI50 (SK-MEL-2): > 100 µM (inactive) | GI50 (SK-MEL-5): 92.9 µM (inactive) | GI50 (SK-OV-3): > 100 µM (inactive) | GI50 (SN12C): 67.8 µM (inactive) | GI50 (SNB-19): 87.7 µM (inactive) | GI50 (SNB-75): 52.8 µM (inactive) | GI50 (SW-620): 80.2 µM (inactive) | GI50 (UACC-257): 60.8 µM (inactive) | GI50 (UACC-62): 92 µM (inactive) | GI50 (UO-31): 33.7 µM (inactive) | GI50 (XF498): 51.5 µM (inactive)

CSC(=O)C[C@@]12O[C@@H]([C@@H](C)C3CCC4[C@@H]5C(O)CC6=CC(=O)C=C[C@]6(C)C5CC[C@@]43C)C[C@](C)(O1)C(C)(C)O2 (stereo partly specified)
GI50 (786-0): 16.1 µM (inactive) | GI50 (A498): 16.4 µM (inactive) | GI50 (A549): 15.5 µM (inactive) | GI50 (CAKI-1): 18.6 µM (inactive) | GI50 (CCRF-CEM): 3.86 µM (inactive) | GI50 (DMS-114): 5.81 µM (inactive) | GI50 (DMS-273): 15.9 µM (inactive) | GI50 (HCC 2998): 26.2 µM (inactive) | GI50 (HCT-116): 12.8 µM (inactive) | GI50 (HCT-15): 17.3 µM | GI50 (HL-60): 7.85 µM (inactive) | GI50 (HOP-62): 18.2 µM (inactive) | GI50 (HOP-92): 9.86 µM (inactive) | GI50 (HT-29): 14.5 µM (inactive) | GI50 (IGROV-1): 16.1 µM (inactive) | GI50 (K562): 4.3 µM (inactive) | GI50 (KM12): 16 µM (inactive) | GI50 (LOX IMVI): 12.1 µM (inactive) | GI50 (LXFL 529): 13.2 µM (inactive) | GI50 (M14): 16.3 µM (inactive) | GI50 (M19-MEL): 1.43 µM (inactive) | GI50 (Malme-3M): 23.2 µM (inactive) | GI50 (NCI-H226): 22.3 µM (inactive) | GI50 (NCI-H23): > 10 µM (inactive) | GI50 (NCI-H460): 19.1 µM (inactive) | GI50 (NCI-H522): 14.1 µM (inactive) | GI50 (OVCAR-3): 15.1 µM (inactive) | GI50 (OVCAR-4): 13.5 µM (inactive) | GI50 (OVCAR-5): 17.7 µM (inactive) | GI50 (OVCAR-8): 17.8 µM (inactive) | GI50 (RPMI-8226): 4.8 µM (inactive) | GI50 (RXF 393): 11.6 µM (inactive) | GI50 (RXF 631): 19.8 µM (inactive) | GI50 (SF-268): 16.4 µM (inactive) | GI50 (SF-295): 14.5 µM (inactive) | GI50 (SF-539): 16.3 µM (inactive) | GI50 (SK-MEL-28): 17.9 µM (inactive) | GI50 (SK-MEL-2): 22.9 µM (inactive) | GI50 (SK-OV-3): 16.6 µM (inactive) | GI50 (SN12C): 16.6 µM (inactive) | GI50 (SNB-19): 17.5 µM (inactive) | GI50 (SNB-78): 15.5 µM (inactive) | GI50 (SR): 9.95 µM (inactive) | GI50 (SW-620): 17.3 µM (inactive) | GI50 (TK-10): 17.8 µM (inactive) | GI50 (U-251): 12.5 µM (inactive) | GI50 (UACC-257): 12.6 µM (inactive) | GI50 (UACC-62): 10.3 µM (inactive) | GI50 (UO-31): 12.3 µM (inactive) | GI50 (XF498): 14.7 µM (inactive)

COc1ccc(/C(Cl)=C(\C=O)c2ccc(Cl)cc2)cc1
GI50 (A498): 30.1 µM (inactive) | GI50 (A549): 5.61 µM (inactive) | GI50 (ACHN): 3.27 µM (inactive) | GI50 (CAKI-1): 9.51 µM (inactive) | GI50 (CCRF-CEM): 2.94 µM (inactive) | GI50 (DLD-1): 4.85 µM (inactive) | GI50 (DMS-114): 4.15 µM (inactive) | GI50 (DMS-273): 4.34 µM (inactive) | GI50 (EKVX): 5.07 µM (inactive) | GI50 (HCC 2998): 23.2 µM (inactive) | GI50 (HCT-116): 4.02 µM (inactive) | GI50 (HCT-15): 3.41 µM | GI50 (HL-60): 3.46 µM (inactive) | GI50 (HOP-18): 30.3 µM (inactive) | GI50 (HOP-62): 19.4 µM (inactive) | GI50 (HT-29): 4.84 µM (inactive) | GI50 (IGROV-1): 7.71 µM (inactive) | GI50 (K562): 3.81 µM (inactive) | GI50 (KM-20L2): 6.41 µM (inactive) | GI50 (LOX IMVI): 3.45 µM (inactive) | GI50 (LXFL 529): 9.23 µM (inactive) | GI50 (M14): 14.1 µM (inactive) | GI50 (M19-MEL): 9.77 µM (inactive) | GI50 (MOLT-4): 2.63 µM (inactive) | GI50 (Malme-3M): 23.3 µM (inactive) | GI50 (NCI-H226): 6.35 µM (inactive) | GI50 (NCI-H23): 3.56 µM (inactive) | GI50 (NCI-H460): 3.81 µM (inactive) | GI50 (NCI-H522): 2.19 µM (inactive) | GI50 (OVCAR-3): 4.68 µM (inactive) | GI50 (OVCAR-4): 8.61 µM (inactive) | GI50 (OVCAR-5): 57.5 µM (inactive) | GI50 (OVCAR-8): 4.41 µM (inactive) | GI50 (RXF 393): 10.7 µM (inactive) | GI50 (RXF 631): 3.64 µM (inactive) | GI50 (SF-268): 6.11 µM (inactive) | GI50 (SF-295): 4.4 µM (inactive) | GI50 (SF-539): 9.16 µM (inactive) | GI50 (SK-MEL-2): 3.82 µM (inactive) | GI50 (SK-MEL-5): 11.2 µM (inactive) | GI50 (SK-OV-3): 40.9 µM (inactive) | GI50 (SN12C): 3.08 µM (inactive) | GI50 (SNB-19): 7.01 µM (inactive) | GI50 (SNB-75): 4.27 µM (inactive) | GI50 (SNB-78): 6.85 µM (inactive) | GI50 (SR): 2.69 µM (inactive) | GI50 (SW-620): 4.12 µM (inactive) | GI50 (TK-10): 6.15 µM (inactive) | GI50 (U-251): 3.79 µM (inactive) | GI50 (UACC-257): 11 µM (inactive) | GI50 (UACC-62): 10.1 µM (inactive) | GI50 (UO-31): 4.71 µM (inactive)
